The test system of assay [1] is Blumeria graminis f. sp. tritici (Erysiphe graminis f. sp. tritici). The assay is described as follows: Blumeria graminis f. sp. tritici / wheat / leaf disc preventative (powdery mildew on wheat). It is filed as in vivo. The settings on record: foliar, wheat leaf segments cv. Kanzler, inoculated 1 day after application, assessed 6-8 days after application, read-out: control of Blumeria graminis f. sp. tritici (percent disease control compared to untreated). An excerpt: Example B4: Blumeria graminis f. sp. tritici (Erysiphe graminis f. sp. tritici)/Wheat/Leaf Disc Preventative (Powdery Mildew on Wheat) Wheat leaf segments cv. Kanzler are placed on agar in a multiwell plate (24-well format) and sprayed with the formulated test compound diluted in water. The leaf disks are inoculated by shaking powdery mildew infected plants above the test plates 1 day after application. […] […]-192.

In assay [2] the test system is Monographella nivalis (Microdochium nivale). As to the kind of experiment: Monographella nivalis (Microdochium nivale) / liquid culture (foot rot cereals). It is filed as cell-based. The following applies: PDB potato dextrose broth, 24° C., 4-5 days after application, read-out: control of Monographella nivalis (inhibition of growth, photometric). The procedure:
Example B7: Monographella nivalis (Microdochium nivale)/Liquid Culture (Foot Rot Cereals) Conidia of the fungus from cryogenic storage are directly mixed into nutrient broth (PDB potato dextrose broth). After placing a (DMSO) solution of test compound into a microtiter plate (96-well format), the nutrient broth containing the fungal spores is added. The test plates are incubated at 24° C. and the inhibition of growth is determined photometrically 4-5 days after application. […] […]-190.

Assay [3] deals with Mycosphaerella graminicola (Septoria tritici). As to the kind of experiment: Mycosphaerella graminicola (Septoria tritici) / liquid culture (Septoria blotch). Format: cell-based. The following applies: Zymoseptoria tritici, PDB potato dextrose broth, 24° C., 4-5 days after application, read-out: control of Mycosphaerella graminicola (inhibition of growth, photometric). Here is the method:
Example B15: Mycosphaerella graminicola (Septoria tritici)/Liquid Culture (Septoria Blotch) Conidia of the fungus from cryogenic storage are directly mixed into nutrient broth (PDB potato dextrose broth). After placing a (DMSO) solution of test compound into a microtiter plate (96-well format), the nutrient broth containing the fungal spores is added. The test plates are incubated at 24° C. and the inhibition of growth is determined photometrically 4-5 days after application. […] […]-191.

For assay [4], the system named is Glomerella lagenarium (Colletotrichum lagenarium). As to the kind of experiment: Glomerella lagenarium (Colletotrichum lagenarium) / liquid culture (anthracnose). Format: cell-based. The settings on record: Colletotrichum orbiculare, PDB potato dextrose broth, 24° C., 3-4 days after application, read-out: control of Glomerella lagenarium (inhibition of growth, photometric). Here is the method:
Example B3: Glomerella lagenarium (Colletotrichum lagenarium)/Liquid Culture (Anthracnose) Conidia of the fungus from cryogenic storage are directly mixed into nutrient broth (PDB potato dextrose broth). After placing a (DMSO) solution of test compound into a microtiter plate (96-well format), the nutrient broth containing the fungal spores is added. The test plates are incubated at 24° C. and the inhibition of growth is measured photometrically 3-4 days after application. […] […]-191.

With `COc1cnc(Nc2cc(F)nc(F)c2)nc1C(=O)NCCC(C)C` [Compound P-9, 2-[(2,6-difluoro-4-pyridyl)amino]-N-isopentyl-5-methoxy-pyrimidine-4-carboxamide], in assay [1], the pest or weed control at 200 ppm was at least 80%.

As to `COc1cnc(Nc2cc(F)nc(F)c2)nc1C(=O)NC1CCC1(C)C` (stereo not drawn) [Compound P-11, 2-[(2,6-difluoro-4-pyridyl)amino]-N-(2,2-dimethylcyclobutyl)-5-methoxy-pyrimidine-4-carboxamide], in assay [1], the pest or weed control at 200 ppm is at least 80%.

For `COc1ccc(Nc2cnsc2)nc1C(=O)NCCOc1ccc(Cl)cc1Cl` [Compound P-39, N-[2-(2,4-dichlorophenoxy)ethyl]-6-(isothiazol-4-ylamino)-3-methoxy-pyridine-2-carboxamide], the inhibition at 20 ppm in assay [2], in assay [3] and in assay [4] was at least 80% each time.

Regarding `COc1ccc(Nc2cc(F)nc(F)c2)nc1C(=O)NCc1cncn1Cc1ccccc1` [Compound P-48, N-[(3-benzylimidazol-4-yl)methyl]-6-[(2,6-difluoro-4-pyridyl)amino]-3-methoxy-pyridine-2-carboxamide], the pest or weed control at 200 ppm in assay [1] was at least 80%.

Consider `COc1ccc(Nc2cccc(C)c2)nc1C(=O)NCC(C)(C)C` [Compound P-140, N-(2,2-dimethylpropyl)-3-methoxy-6-(3-methylanilino)pyridine-2-carboxamide], for which the inhibition at 20 ppm in assay [2], in assay [3] and in assay [4] was at least 80% throughout.

Consider `CC1(C)CCC1NC(=O)c1nc(Nc2ccccc2)ccc1O` (stereo not drawn) [Compound P-16, 6-anilino-N-(2,2-dimethylcyclobutyl)-3-hydroxy-pyridine-2-carboxamide], for which the inhibition at 20 ppm in assay [2], in assay [3] and in assay [4] was at least 80% each time.

Take `COc1ccc(Nc2cnsc2)nc1C(=O)NCc1ccc(Cl)cc1` [Compound P-37, N-[(4-chlorophenyl)methyl]-6-(isothiazol-4-ylamino)-3-methoxy-pyridine-2-carboxamide]: the inhibition at 20 ppm in assay [2], in assay [3] and in assay [4] was at least 80% in each case.

`COc1ccc(Nc2cc(F)cc(F)c2)nc1C(=O)NCC1(c2ccc(Cl)nc2)CC1` [Compound P-73, N-[[1-(6-chloro-3-pyridyl)cyclopropyl]methyl]-6-(3,5-difluoroanilino)-3-methoxy-pyridine-2-carboxamide]: the inhibition at 20 ppm in assay [2], in assay [3] and in assay [4] was at least 80% each time.

For `COc1ccc(Nc2cc(F)nc(F)c2)nc1C(=O)NC1COC(C2CC2)C1` (stereo not drawn) [Compound P-50, N-(5-cyclopropyltetrahydrofuran-3-yl)-6-[(2,6-difluoro-4-pyridyl)amino]-3-methoxy-pyridine-2-carboxamide], the pest or weed control at 200 ppm in assay [1] was at least 80%.

For `C#CCOc1ccc(Nc2cc(F)cc(F)c2)nc1C(=O)NC(C)(C)C` [Compound P-96, N-tert-butyl-6-(3,5-difluoroanilino)-3-prop-2-ynoxy-pyridine-2-carboxamide], the inhibition at 20 ppm in assay [2] and in assay [3] was at least 80% throughout.

For `COc1ccc(NCC2CC2)nc1C(=O)NCC(C)(C)C` [Compound P-40, 6-(cyclopropylmethylamino)-N-(2,2-dimethylpropyl)-3-methoxy-pyridine-2-carboxamide], the inhibition at 20 ppm in assay [2] and in assay [3] was at least 80% throughout.

In the case of `COc1ccc(NCC(C)(C)C)nc1C(=O)NCC(C)(C)C` [Compound P-43, N-(2,2-dimethylpropyl)-6-(2,2-dimethylpropylamino)-3-methoxy-pyridine-2-carboxamide], the inhibition at 20 ppm in assay [2] and in assay [3] was at least 80% each time.

For `CC1(C)CCC1NC(=O)c1nc(Nc2cc(F)cc(F)c2)ccc1O` (stereo not drawn) [Compound P-2, 6-(3,5-difluoroanilino)-N-(2,2-dimethylcyclobutyl)-3-hydroxy-pyridine-2-carboxamide], the inhibition at 20 ppm in assay [2], in assay [3] and in assay [4] was at least 80% each time.

As for `CCON=C(CNC(=O)c1nc(Nc2cc(F)cc(F)c2)ccc1OC)c1ncc(Cl)cc1Cl` [Compound P-75, N-[2-(3,5-dichloro-2-pyridyl)-2-ethoxyimino-ethyl]-6-(3,5-difluoroanilino)-3-methoxy-pyridine-2-carboxamide], the inhibition at 20 ppm in assay [2], in assay [3] and in assay [4] was at least 80% in each case.

With `O=C(NC1CCC12CCCC2)c1nc(Nc2cc(F)nc(F)c2)ccc1O` (stereo not drawn) [Compound P-3, 6-[(2,6-difluoro-4-pyridyl)amino]-3-hydroxy-N-spiro[3.4]octan-3-yl-pyridine-2-carboxamide], the inhibition at 20 ppm in assay [2], in assay [3] and in assay [4] was at least 80% each time.

Take `COc1ccc(Nc2ccc(Cl)c(Cl)c2)nc1C(=O)NCC(C)(C)C` [Compound P-131, 6-(3,4-dichloroanilino)-N-(2,2-dimethylpropyl)-3-methoxy-pyridine-2-carboxamide]: the inhibition at 20 ppm in assay [2] and in assay [4] was at least 80% in each case.

As to `CC1(C)CCC1NC(=O)c1nc(Nc2ccnc(F)c2)ccc1O` (stereo not drawn) [Compound P-18, N-(2,2-dimethylcyclobutyl)-6-[(2-fluoro-4-pyridyl)amino]-3-hydroxy-pyridine-2-carboxamide], the inhibition at 20 ppm in assay [2], in assay [3] and in assay [4] was at least 80% in each case.

As for `COc1ccc(Nc2cnsc2)nc1C(=O)NC(C)COc1cc(F)cc(F)c1` (stereo not drawn) [Compound P-38, N-[2-(3,5-difluorophenoxy)-1-methyl-ethyl]-6-(isothiazol-4-ylamino)-3-methoxy-pyridine-2-carboxamide], the inhibition at 20 ppm in assay [2] and in assay [3] was at least 80% in each case.

Regarding `COc1ccc(Nc2ccc(C(F)(F)F)cc2)nc1C(=O)NC(C)(C)C` [Compound P-150, N-tert-butyl-3-methoxy-6-[4-(trifluoromethyl)anilino]pyridine-2-carboxamide], the inhibition at 20 ppm in assay [2] and in assay [4] was at least 80% each time.

With `COc1cnc(Nc2cc(F)cc(F)c2)nc1C(=O)NCCC(C)C` [Compound P-8, 2-(3,5-difluoroanilino)-N-isopentyl-5-methoxy-pyrimidine-4-carboxamide], the inhibition at 20 ppm in assay [2], in assay [3] and in assay [4] was at least 80% in each case.

Turning to `COc1ccc(Nc2ccc(Cl)c(C)c2)nc1C(=O)NCC(C)(C)C` [Compound P-138, 6-(4-chloro-3-methyl-anilino)-N-(2,2-dimethylpropyl)-3-methoxy-pyridine-2-carboxamide], the inhibition at 20 ppm in assay [2] and in assay [4] was at least 80% in each case.

`COc1ccc(Nc2ccc(F)cc2)nc1C(=O)NCC(C)(C)C` [Compound P-133, N-(2,2-dimethylpropyl)-6-(4-fluoroanilino)-3-methoxy-pyridine-2-carboxamide]: the inhibition at 20 ppm in assay [2], in assay [3] and in assay [4] was at least 80% in each case.
